{
  "source": "paper PMC4319826",
  "about": "“Potent Natural Soluble Epoxide Hydrolase Inhibitors from Pentadiplandra brazzeana Baillon: Synthesis, Quantification, and Measurement of Biological Activities In Vitro and In Vivo” (PLoS ONE, 2015)",
  "key": {"sEH": {"test_system": "sEH", "conditions": "cited from earlier work"}, "recombinant human sEH [1]": {"target": "T1, recombinant human sEH (Homo sapiens, UniProt P34913)", "T1 construct": "made in house; host or cells: insect High Five cells, recombinant baculovirus", "T1 sequence (P34913 1-555)": "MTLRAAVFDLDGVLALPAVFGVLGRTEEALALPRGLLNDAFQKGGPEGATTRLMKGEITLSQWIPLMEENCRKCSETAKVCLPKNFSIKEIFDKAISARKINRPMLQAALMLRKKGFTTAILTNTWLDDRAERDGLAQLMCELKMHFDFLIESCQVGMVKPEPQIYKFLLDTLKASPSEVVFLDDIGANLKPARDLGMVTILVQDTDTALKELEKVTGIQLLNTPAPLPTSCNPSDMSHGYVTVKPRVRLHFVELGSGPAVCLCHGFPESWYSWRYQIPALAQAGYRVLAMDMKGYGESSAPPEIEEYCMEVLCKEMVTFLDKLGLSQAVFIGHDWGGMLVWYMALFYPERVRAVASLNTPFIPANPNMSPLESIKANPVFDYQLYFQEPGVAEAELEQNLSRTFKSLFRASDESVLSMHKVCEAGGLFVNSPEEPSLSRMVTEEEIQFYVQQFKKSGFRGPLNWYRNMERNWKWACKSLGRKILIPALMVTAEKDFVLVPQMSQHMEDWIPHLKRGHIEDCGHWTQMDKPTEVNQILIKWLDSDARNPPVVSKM", "experiment": "sEH inhibition by radioactivity-based assay (t-DPPO assay), human", "assay_type": "biochemical", "conditions": "for IC50: t-DPPO 50 μM, mean ± SD of three measurements", "procedure": "(§1) Recombinant human and recombinant rat sEH were produced in insect High Five cells using recombinant baculovirus expression vectors, and purified by affinity chromatography as reported previously. Each enzyme appeared as a single band (0.3 μg loading) with an estimated purity of more than 95% by Coomassie Brilliant Blue staining following SDS-PAGE separation (S1 Fig.). The final recombinant sEH preparations had no esterase or glutathione S-transferase activity which interferes with the CMNPC assay as described below.\nIC50 values were determined as described previously with slight modifications, using racemic [^3H] trans-diphenylpropene oxide (t-DPPO). Purified recombinant human sEH was diluted in 100 mM sodium phosphate buffer (pH 7.4) containing 0.1 mg/ml BSA, and was incubated in triplicate with inhibitors for 5 min at 30°C prior to the introduction of the radiolabeled substrate (t-DPPO: 50 μM; ∼10,000 cpm/assay). The mixture was incubated at 30°C for 10 min and the reaction was quenched by the addition of 60 μl of methanol. The remaining substrate was extracted by vigorous mixing with 200 μl of isooctane. The radioactivity of the aqueous phase was measured using a liquid scintillation counter (Perkin Elmer Tri-Carb 2810TR, Shelton, CT). Epoxide hydrolase activity was determined as a percentage of the radioactivity corresponding to the diol in the aqueous phase relative to the control."}, "recombinant human sEH [2]": {"target": "T1, recombinant human sEH", "experiment": "sEH inhibition by fluorescent assay (CMNPC assay), human", "assay_type": "biochemical", "conditions": "for IC50: recombinant human sEH 0.96 nM, [S] = 5 μM, mean ± SD of three measurements", "procedure": "as §1\n(§2) IC50 values were determined as described previously using cyano (2-methoxynaphthalen-6-yl) methyl trans-(3-phenyl-oxyran-2-yl) methyl carbonate (CMNPC) as a fluorescent substrate. Recombinant human or recombinant rat sEH (0.96 nM) was incubated with crude root extract or inhibitors for 5 min in 25 mM bis-Tris/HCl buffer (pH 7.0) containing 0.1 mg/mL of BSA at 30°C prior to substrate introduction ([S] = 5 μM). Activity was measured by determining the appearance of the 6-methoxy-2-naphthaldehyde with an excitation wavelength of 330 nm and an emission wavelength of 465 nm for 10 min.\nThe inhibitory potency on human sEH was measured using the CMNPC assay as described in the Materials and Methods. Firstly, the inhibition percentage by each fraction (100 times dilution) was measured (Figure S5&S7). Then the inhibitory potency was measured for the fractions showing higher than 50% inhibition and the IC50 was determined. The potency of each of the fractions is presented as a relative potency to the calculated IC50 of the extract based on the concentration of MMU (Relative potency unit=dilution factor at IC50 of each of fraction/dilution factor at calculated IC50 of the extract based on MMU). […] Data in Table S1&S2 show the relative potency of each fraction and the percentage of recovered potency."}, "recombinant rat sEH": {"target": "T2, recombinant rat sEH (Rattus norvegicus, UniProt P80299)", "T2 construct": "made in house; host or cells: insect High Five cells, recombinant baculovirus", "T2 sequence (P80299 1-554)": "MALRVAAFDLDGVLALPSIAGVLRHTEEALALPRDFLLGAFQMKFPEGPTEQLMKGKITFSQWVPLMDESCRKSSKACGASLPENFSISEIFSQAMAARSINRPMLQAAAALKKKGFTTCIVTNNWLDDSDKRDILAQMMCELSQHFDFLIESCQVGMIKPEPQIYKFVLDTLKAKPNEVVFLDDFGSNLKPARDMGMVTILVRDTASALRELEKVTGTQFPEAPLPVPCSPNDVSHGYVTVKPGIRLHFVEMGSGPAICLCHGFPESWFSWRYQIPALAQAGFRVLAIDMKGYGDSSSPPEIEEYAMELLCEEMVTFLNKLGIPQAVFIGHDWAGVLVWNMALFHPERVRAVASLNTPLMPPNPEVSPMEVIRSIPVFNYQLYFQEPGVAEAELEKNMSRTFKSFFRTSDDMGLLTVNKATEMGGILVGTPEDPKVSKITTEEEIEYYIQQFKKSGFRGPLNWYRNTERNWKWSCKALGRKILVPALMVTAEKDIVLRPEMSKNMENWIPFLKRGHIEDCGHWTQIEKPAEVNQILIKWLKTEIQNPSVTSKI", "experiment": "sEH inhibition by fluorescent assay (CMNPC assay), rat", "assay_type": "biochemical", "conditions": "recombinant rat sEH 0.96 nM, [S] = 5 μM, mean ± SD of three measurements", "procedure": "as §1, §2"}, "[3]": {"test_system": "carrageenan induced inflammatory pain", "experiment": "Nociceptive assay, carrageenan-induced inflammatory pain model (von Frey mechanical withdrawal threshold)", "assay_type": "in vivo", "conditions": "rat", "procedure": "Male Sprague-Dawley rats weighing 235–280 g were obtained from Charles River Laboratories and maintained in the UC Davis animal housing facility with ad libitum water and food on a 12 h/12 h light-dark cycle. Behavioral nociceptive testing was conducted by assessing mechanical withdrawal threshold using an electronic von Frey anesthesiometer apparatus (IITC, Woodland Hills, CA). […] At least three measurements were taken at 1–2 min inter-stimulus intervals. Data were normalized to percentage values using the formula (mechanical withdrawal threshold (g)) ×100/ (mechanical withdrawal threshold (g) of naïve animals). The analgesic effect of MMU was tested using the intraplantar carrageenan elicited local inflammatory pain model. […] Subsequently, the ability of these treatments to reduce the carrageenan-induced inflammatory pain was monitored over the course of 2.5 h."}, "recombinant human sEH [4]": {"target": "T1, recombinant human sEH", "experiment": "Enzyme kinetics (Dixon method, t-DPPO substrate), dissociation constant", "assay_type": "biochemical", "procedure": "Dissociation constants were determined following the method described by Dixon for competitive tight binding inhibitors, using t-DPPO as a substrate. Inhibitor MMU at concentrations between 0 and 1000 nM was incubated in triplicate for 5 min in 100 mM sodium phosphate buffer (pH 7.4) at 30°C with 100 μl of the enzyme (2 nM of recombinant human sEH). Substrate (4.0 ≤ [S] final ≤ 30 μM) was then added. Velocity was measured as described previously. For each substrate concentration, the plots of the velocity as a function of the inhibitor concentration allow the determination of an apparent inhibition constant (Kiapp). The plot of the Kiapp values as a function of the substrate concentration allows the determination of Ki when [S] = 0. Kiapp was measured in at least 3 separate assays. Results are presented as average ± SE."}, "[5]": {"experiment": "Solubility in sodium phosphate buffer", "assay_type": "physicochemical", "conditions": "sodium phosphate buffer 0.1 M pH 7.4, 25°C, mean±SD", "procedure": "An excess amount of MMU was added to a vial containing sodium phosphate buffer, 0.1 M pH 7.4 (0.25 mL), and the MMU suspension was equilibrated during 1 h of sonication and 48 h of shaking at 25°C, followed by centrifugation. The amount of MMU in the supernatant was analyzed by LC—MS/MS. The result is presented as mean ± SD of triplicate measurement."}, "[6]": {"test_system": "carrageenan induced inflammatory pain", "set-up": "method as in Rose et al., (2010)", "conditions": "rat, ref Rose et al., (2010), cited from earlier work"}, "human sEH": {"test_system": "human sEH", "conditions": "cited from earlier work"}},
  "note": "Entries after “also recorded” stand apart in the source; their conditions may differ. Like-named read-outs stand apart in the source and are kept apart here.",
  "data": [
    {"compound": "C=CCc1ccc(O)c(-c2ccc(O)c(CC=C)c2)c1", "note": "[honokiol, reference compound]", "values": [
      {"measurement": "IC50", "setting": "sEH", "result": 3400, "unit": "nM"},
      {"measurement": "IC50", "setting": "recombinant human sEH [1]", "result": "20.3 ± 1.7", "unit": "µM"}
    ]},
    {"compound": "CC(=O)O[C@H]1CC[C@]2(C)[C@H]3CC=C4[C@@H]5CC(C)(C)CC[C@]5(C)CC[C@@]4(C)[C@]3(C)CC[C@H]2C1(C)C", "note": "[β-amyrin acetate]", "values": [
      {"measurement": "IC50", "setting": "sEH", "result": 570, "unit": "nM"}
    ]},
    {"compound": "O=C(NCc1ccccc1)NCc1ccccc1", "note": "[BBU, 1,3-Dibenzylurea]", "values": [
      {"measurement": "IC50", "setting": "recombinant human sEH [2]", "result": "1900 ± 300", "unit": "nM"},
      {"measurement": "IC50", "setting": "recombinant human sEH [1]", "result": "48.3 ± 7", "unit": "µM"},
      {"measurement": "IC50", "setting": "recombinant rat sEH", "result": "100 ± 6", "unit": "nM"}
    ]},
    {"compound": "COc1ccc(CNC(=O)NCc2ccc(OC)cc2)cc1", "note": "[MMU, 1,3-Bis (4-methoxybenzyl) urea]", "values": [
      {"measurement": "IC50", "setting": "recombinant human sEH [2]", "result": "92 ± 14", "unit": "nM"},
      {"measurement": "IC50", "setting": "recombinant human sEH [1]", "result": "2.6 ± 0.4", "unit": "µM"},
      {"measurement": "potency relative to honokiol (more potent)", "setting": "recombinant human sEH [1]; t-DPPO assay", "result": "about 8 fold"},
      {"measurement": "reduction of carrageenan-induced inflammatory pain", "setting": "[3]; 10 μg/paw intraplantar, 4 h after carrageenan, monitored 2.5 h", "result": "effectively reduced inflammatory pain; also recorded: significantly reduced carrageenan induced inflammatory pain; also recorded: significantly reduced pain levels; also recorded: showed local analgesic effects"},
      {"measurement": "duration of efficacy compared to morphine", "setting": "[3]; MMU 10 μg/paw vs morphine 10 μg/paw, Tukey p<0.05", "result": "longer duration of efficacy compared to morphine"},
      {"measurement": "Ki", "setting": "recombinant human sEH [4]", "result": 54, "unit": "nM"},
      {"measurement": "potency higher than APAU (Ki based)", "setting": "recombinant human sEH [4]", "result": "approximately 2 fold"},
      {"measurement": "potency lower than t-AUCB (Ki based)", "setting": "recombinant human sEH [4]", "result": "approximately 40 fold"},
      {"measurement": "solubility at 48 h", "setting": "[5]", "result": "10.6 ± 2.1", "unit": "µM"},
      {"measurement": "IC50", "setting": "recombinant rat sEH", "result": "35 ± 5", "unit": "nM"}
    ]},
    {"compound": "COc1ccc(CNC(=O)NCc2ccccc2)cc1", "note": "[BMU, 1-Benzyl-3-(4-methoxybenzyl) urea]", "values": [
      {"measurement": "IC50", "setting": "recombinant human sEH [2]", "result": "400 ± 50", "unit": "nM"},
      {"measurement": "inhibitory activity lower than that of MMU", "setting": "recombinant human sEH [2]; with both CMNPC and t-DPPO assays", "result": "about 4 fold"},
      {"measurement": "IC50", "setting": "recombinant human sEH [1]", "result": "10.2 ± 2.6", "unit": "µM"},
      {"measurement": "IC50", "setting": "recombinant rat sEH", "result": "44 ± 4.2", "unit": "nM"}
    ]},
    {"compound": "CN1CC[C@]23c4c5ccc(O)c4O[C@H]2[C@@H](O)C=C[C@H]3[C@H]1C5", "note": "[morphine]", "values": [
      {"measurement": "reduction of carrageenan-induced inflammatory pain", "setting": "[6]; 10 μg/paw intraplantar", "result": "significantly reduced carrageenan induced inflammatory pain; also recorded: significantly reduced pain levels"}
    ]},
    {"compound": "O=C(Nc1ccc(OC(F)(F)F)cc1)NC1CCN(C(=O)C2CC2)CC1", "note": "[TPCU, 1-(1-(Cyclopropanecarbonyl)piperidin-4-yl)-3-(4-(trifluoromethoxy)phenyl) urea]", "values": [
      {"measurement": "reduction of carrageenan-induced inflammatory pain", "setting": "[6]; 10 ng/paw intraplantar", "result": "significantly reduced carrageenan induced inflammatory pain; also recorded: significantly reduced pain levels"},
      {"measurement": "IC50", "setting": "human sEH", "result": "[…]"}
    ]}
  ]
}
